Molecular target: T1, PI3Kγ (purified recombinant p101/p110γ protein) (Homo sapiens, UniProt P48736)
T1 construct: HA; made in house; host or cells: Spodoptera frugiperda Sf9 cells (baculovirus co-infection)
Test: PI3Kγ In Vitro Kinase Assay
Assay type: biochemical
Conditions: final ATP 20 μM, 25 μM PIP2, G protein β1/γ2 subunits, 20 minutes at room temperature
Description: Spodtera frugiperda cells, grown in ESF921 media, were co-infected with baculovirus expressing a glu-tagged p101 and baculovirus expressing an HA-tagged p110γ, at a 3:1 ratio of p101 baculovirus to p110γ baculovirus. Sf9 cells were grown to 1×10^7 total cells/mL in 10 L bioreactors and harvested 48-72 hours post infection. Samples of infected cells were then tested for expression of p101/p110γ PI3 kinase by immunoprecipitation and Western Blot analysis methods (see below).
To purify PI3Kγ, 4 volumes of room temperature hypotonic lysis buffer (1 mM MgCl2, 1 mM DTT, 5 mM EGTA, 1 mM Pefabloc, 0.5 μM aprotinin, 5 μM leupeptin, 2 μM pepstatin, 5 μM E64, pH 8) per gram of cell paste, was poured onto frozen cell pellets with stirring, then lysed in a nitrogen “bomb” at 400 psi (599HC T316, Parr Instrument Co, Moline, Ill.). NaCl was added to 150 mM, and sodium cholate was added to 1% and mixed for another 45 minutes. The lysates were clarified by centrifugation for 25 minutes at 14,000 rpm. The lysates were then loaded over anti-glu-linked Protein-G Sepaharose beads (Covance Research Products, Richmond, Calif.) using 20 mL resin/50 g cell paste. The column was washed with 15 volumes of wash buffer (1 mM DTT, 0.2 mM EGTA, 1 mM Pefabloc, 0.5 μM aprotinin, 5 μM leupeptin, 2 μM pepstatin, 5 μM E64, 150 mM NaCl, 1% sodium cholate, pH 8). PI3Kγ was eluted with 6 column volumes of wash buffer that contain 100 μg/mL of a peptide that competes for binding of the glu tag. The column fractions with the eluted protein (determined by taking OD280 readings) were collected and dialyzed in 0.2 mM EGTA, 1 mM DTT, 1 mM Pefabloc, 5 μM leupeptin, 0.5% sodium cholate, 150 mM NaCl, and 50% glycerol, pH 8. The fractions were stored at −80° C. until further use.
Spodtera frugiperda cells were coinfected with baculovirus expressing a glu-tagged G protein β1 and baculovirus expressing a G protein β2, at a 1:1 ratio of glu-tagged G protein β1 baculovirus to G protein β2 baculovirus. Sf9 cells are grown in 10 L bioreactors and harvested 48-72 hours post infection. Samples of infected cells were tested for G protein β1/β2 expression by Western Blot analysis, as described below. Cell lysates were homogenized and loaded onto a column of glu-tagged beads as in Biological Example 1 and competed off the column with a glu peptide and processed as described in Biological Example 1.
The inhibitory properties of the compounds in Table 1 were assayed in an in vitro PI3K assay. In a 96-well polypropylene plate, each well was spotted with 2 μL of 50 times the desired final concentration of compound in DMSO. Purified recombinant p101/p110γ protein (0.03 μg; ˜2.7 nM) and G protein β1/γ2 subunits (0.09 μg; ˜57.7 nM) for each reaction was combined in the assay buffer (30 mM HEPES, 100 mM NaCl, 1 mM EGTA, and 1 mM DTT). ATP and [γ-^32P-ATP] (0.09 μCi) were added to this mixture so that the final ATP concentration in the reaction was 20 μM. Lipid micelles were formed by sonicating phosphatidylinositol-4,5-diphosphate (PIP2), phosphatidylethanolamine (PE), and Na-cholate in the assay buffer for 10 minutes, adding MgCl2 and incubating on ice for 20 minutes, for final concentrations of 25 μM PIP2, 300 μM PE, 0.02% Na-cholate, and 10 mM MgCl2 in the reaction. The reactions were started by adding equal volumes lipid and enzyme mixture in a total volume of 50 μL, allowed to run for 20 minutes at room temperature, and stopped with 100 μL 75 mM H3PO4. The lipid product was transferred to a glass fiber filter plate and washed with 75 mM H3PO4 several times. The presence of radioactive lipid product (PIP3) was measured by adding Wallac Optiphase mix to each well and counting in a Wallac 1450 Trilux plate reader (PerkinElmer Life Sciences Inc., Boston, Mass. 02118). The IC50 for each compound tested is reported in μM in the Table 2: […]

T1 sequence (P48736 whole entry, species assumed): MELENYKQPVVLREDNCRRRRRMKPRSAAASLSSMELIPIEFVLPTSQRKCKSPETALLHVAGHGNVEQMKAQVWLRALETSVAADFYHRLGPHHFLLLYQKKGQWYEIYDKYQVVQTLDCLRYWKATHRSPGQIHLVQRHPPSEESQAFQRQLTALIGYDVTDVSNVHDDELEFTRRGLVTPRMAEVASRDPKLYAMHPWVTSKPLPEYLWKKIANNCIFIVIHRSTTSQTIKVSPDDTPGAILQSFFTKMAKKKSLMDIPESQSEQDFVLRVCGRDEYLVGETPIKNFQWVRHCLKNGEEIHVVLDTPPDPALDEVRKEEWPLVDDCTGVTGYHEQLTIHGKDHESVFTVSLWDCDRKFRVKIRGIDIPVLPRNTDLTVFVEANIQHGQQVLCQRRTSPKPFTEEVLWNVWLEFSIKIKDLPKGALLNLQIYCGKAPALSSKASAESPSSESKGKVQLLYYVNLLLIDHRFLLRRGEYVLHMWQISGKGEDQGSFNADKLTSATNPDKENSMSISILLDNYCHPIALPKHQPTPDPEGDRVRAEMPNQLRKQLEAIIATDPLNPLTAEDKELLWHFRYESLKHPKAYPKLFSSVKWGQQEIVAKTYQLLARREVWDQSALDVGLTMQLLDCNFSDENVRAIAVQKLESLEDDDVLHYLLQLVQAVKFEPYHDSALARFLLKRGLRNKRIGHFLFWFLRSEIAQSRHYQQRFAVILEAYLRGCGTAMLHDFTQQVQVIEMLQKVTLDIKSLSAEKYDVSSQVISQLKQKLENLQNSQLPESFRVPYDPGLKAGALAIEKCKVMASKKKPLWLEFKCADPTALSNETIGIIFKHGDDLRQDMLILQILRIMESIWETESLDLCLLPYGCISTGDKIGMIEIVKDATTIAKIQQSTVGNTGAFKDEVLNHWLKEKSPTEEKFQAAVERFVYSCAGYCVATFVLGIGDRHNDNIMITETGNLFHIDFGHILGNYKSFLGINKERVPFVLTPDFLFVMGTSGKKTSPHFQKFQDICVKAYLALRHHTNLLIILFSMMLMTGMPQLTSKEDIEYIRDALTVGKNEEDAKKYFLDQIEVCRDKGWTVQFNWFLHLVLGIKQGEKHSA
T1 sequence (Q8WYR1 whole entry partner, species assumed): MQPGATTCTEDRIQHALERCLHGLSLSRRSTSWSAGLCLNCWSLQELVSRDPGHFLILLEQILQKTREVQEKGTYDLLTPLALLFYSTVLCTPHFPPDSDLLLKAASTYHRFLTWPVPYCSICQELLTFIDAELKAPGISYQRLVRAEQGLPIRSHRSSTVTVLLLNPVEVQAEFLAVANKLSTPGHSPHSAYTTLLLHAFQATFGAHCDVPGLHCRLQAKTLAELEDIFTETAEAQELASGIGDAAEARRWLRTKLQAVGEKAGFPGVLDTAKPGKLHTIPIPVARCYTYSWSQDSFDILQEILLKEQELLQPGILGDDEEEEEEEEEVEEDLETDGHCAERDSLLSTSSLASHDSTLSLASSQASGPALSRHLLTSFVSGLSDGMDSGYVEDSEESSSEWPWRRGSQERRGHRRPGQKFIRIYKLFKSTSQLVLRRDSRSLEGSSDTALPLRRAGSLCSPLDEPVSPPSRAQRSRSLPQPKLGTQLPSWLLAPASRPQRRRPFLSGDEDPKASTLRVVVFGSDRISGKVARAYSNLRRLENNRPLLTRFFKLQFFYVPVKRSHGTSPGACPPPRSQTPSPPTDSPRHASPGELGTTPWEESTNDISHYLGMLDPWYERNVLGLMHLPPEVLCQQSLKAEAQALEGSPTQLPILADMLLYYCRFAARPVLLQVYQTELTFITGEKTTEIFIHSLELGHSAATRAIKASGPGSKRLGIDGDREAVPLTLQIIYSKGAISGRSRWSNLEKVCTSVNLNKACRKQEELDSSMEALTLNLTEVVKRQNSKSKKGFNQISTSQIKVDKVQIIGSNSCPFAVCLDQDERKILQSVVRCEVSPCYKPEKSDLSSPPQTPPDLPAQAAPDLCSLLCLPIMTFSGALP

Row | Structure (SMILES) | IC50
1 | CCOC(=O)c1cc(Nc2nc(C)c3cc(F)c(=O)n(C4CCCC4)c3n2)cn1C(C)c1ccccc1 (stereo not drawn) [Example 13, 4-(8-Cyclopentyl-6-fluoro-4-methyl-7-oxo-7,8-dihydro-pyrido[2,3-d]pyrimidin-2-ylamino)-1-(1-phenyl-ethyl)-1H-pyrrole-2-carboxylic acid ethyl ester] | 160 nM
2 | CCc1nc(Nc2cc(C(=O)OC)n(C)c2)nc2c1ccc(=O)n2C1CCCCCC1 [Example 14, 4-(8-Cycloheptyl-4-ethyl-7-oxo-7,8-dihydro-pyrido[2,3-d]pyrimidin-2-ylamino)-1-methyl-1H-pyrrole-2-carboxylic acid methyl ester] | 1440 nM
3 | Cc1nc(Nc2cc(C(=O)O)n(C)c2)nc2c1ccc(=O)n2C1CCCCCC1 [Example 15, 4-(8-Cycloheptyl-4-methyl-7-oxo-7,8-dihydro-pyrido[2,3-d]pyrimidin-2-ylamino)-1-methyl-1H-pyrrole-2-carboxylic acid] | 33 nM
4 | Cc1nc(Nc2cc(C(=O)O)n(C(C)c3ccccc3)c2)nc2c1ccc(=O)n2C (stereo not drawn) [Example 16, 4-(4,8-Dimethyl-7-oxo-7,8-dihydro-pyrido[2,3-d]pyrimidin-2-ylamino)-1-(1-phenyl-ethyl)-1H-pyrrole-2-carboxylic acid] | 148 nM
5 | Cc1nc(Nc2cc(C(=O)O)n(C)c2)nc2c1ccc(=O)n2C1CC1 [Example 18, 4-(8-Cyclopropyl-4-methyl-7-oxo-7,8-dihydro-pyrido[2,3-d]pyrimidin-2-ylamino)-1-methyl-1H-pyrrole-2-carboxylic acid] | 185 nM
6 | CCc1nc(Nc2cc(C(=O)O)n(C)c2)nc2c1ccc(=O)n2C1CCCCCC1 [Example 20, 4-(8-Cycloheptyl-4-ethyl-7-oxo-7,8-dihydro-pyrido[2,3-d]pyrimidin-2-ylamino)-1-methyl-1H-pyrrole-2-carboxylic acid] | 1600 nM
7 | Cc1nc(Nc2cc(C(=O)O)n(C)c2)nc2c1ccc(=O)n2C1CCC1 [Example 21, 4-(8-Cyclobutyl-4-methyl-7-oxo-7,8-dihydro-pyrido[2,3-d]pyrimidin-2-ylamino)-1-methyl-1H-pyrrole-2-carboxylic acid] | 55 nM
8 | Cc1nc(Nc2cc(C(=O)O)n(C(C)C)c2)nc2c1ccc(=O)n2C1CCCCCC1 [Example 22, 4-(8-Cycloheptyl-4-methyl-7-oxo-7,8-dihydro-pyrido[2,3-d]pyrimidin-2-ylamino)-1-isopropyl-1H-pyrrole-2-carboxylic acid] | 35 nM
9 | Cc1nc(Nc2ccn(CC(=O)O)c2)nc2c1ccc(=O)n2C1CCCCCC1 [Example 23, [3-(8-Cycloheptyl-4-methyl-7-oxo-7,8-dihydro-pyrido[2,3-d]pyrimidin-2-ylamino)-pyrrol-1-yl]-acetic acid] | 1080 nM
10 | Cc1nc(Nc2cc(C(=O)O)n(C)c2)nc2c1cc(F)c(=O)n2C1CCOCC1 [Example 25, 4-[6-Fluoro-4-methyl-7-oxo-8-(tetrahydro-pyran-4-yl)-7,8-dihydro-pyrido[2,3-d]pyrimidin-2-ylamino]-1-methyl-1H-pyrrole-2-carboxylic acid] | 40 nM
11 | COCCn1c(=O)c(-c2cccc(OCc3ccccc3)c2)cc2c(C)nc(Nc3cc(C(=O)OC)n(C)c3)nc21 [Example 34, 4-[6-(3-Benzyloxy-phenyl)-8-(2-methoxy-ethyl)-4-methyl-7-oxo-7,8-dihydro-pyrido[2,3-d]pyrimidin-2-ylamino]-1-methyl-1H-pyrrole-2-carboxylic acid methyl ester] | 305 nM
12 | Cc1nc(Nc2cc(C(=O)O)n(C)c2)nc2c1cc(-c1cccc(OCc3ccccc3)c1)c(=O)n2Cc1ccc(F)cc1 [Example 35, 4-[6-(3-Benzyloxy-phenyl)-8-(4-fluoro-benzyl)-4-methyl-7-oxo-7,8-dihydro-pyrido[2,3-d]pyrimidin-2-ylamino]-1-methyl-1H-pyrrole-2-carboxylic acid] | 340 nM
13 | COc1ccc(Cn2c(=O)c(C)cc3c(C)nc(Nc4cc(C(=O)O)n(C)c4)nc32)cc1 [Example 36, 4-[8-(4-Methoxy-benzyl)-4,6-dimethyl-7-oxo-7,8-dihydro-pyrido[2,3-d]pyrimidin-2-ylamino]-1-methyl-1H-pyrrole-2-carboxylic acid] | 47 nM

These reach a lower IC50. Values come first.

Row | IC50 | Structure (SMILES)
14 | 25 nM | Cc1nc(Nc2cc(C(=O)O)n(C)c2)nc2c1cc(F)c(=O)n2CC1CCOCC1 [Example 26, 4-[6-Fluoro-4-methyl-7-oxo-8-(tetrahydro-pyran-4-ylmethyl)-7,8-dihydro-pyrido[2,3-d]pyrimidin-2-ylamino]-1-methyl-1H-pyrrole-2-carboxylic acid]
15 | 19 nM | COC1CCC(n2c(=O)c(F)cc3c(C)nc(Nc4cc(C(=O)O)n(C)c4)nc32)CC1 (stereo not drawn) [Example 27, 4-[6-Fluoro-8-(4-methoxy-cyclohexyl)-4-methyl-7-oxo-7,8-dihydro-pyrido[2,3-d]pyrimidin-2-ylamino]-1-methyl-1H-pyrrole-2-carboxylic acid]
16 | 15 nM | Cc1nc(Nc2cc(C(=O)O)n(C(C)c3ccccc3)c2)nc2c1cc(F)c(=O)n2C1CCCC1 (stereo not drawn) [Example 28, 4-(8-Cyclopentyl-6-fluoro-4-methyl-7-oxo-7,8-dihydro-pyrido[2,3-d]pyrimidin-2-ylamino)-1-(1-phenyl-ethyl)-1H-pyrrole-2-carboxylic acid]
17 | 6 nM | COC(=O)c1cc(Nc2nc(C)c3cc(Cl)c(=O)n(C4CCCC4)c3n2)cn1C [Example 29, 4-(6-Chloro-8-cyclopentyl-4-methyl-7-oxo-7,8-dihydro-pyrido[2,3-d]pyrimidin-2-ylamino)-1-methyl-1H-pyrrole-2-carboxylic acid methyl ester]
18 | 2 nM | CCn1c(=O)c(Cl)cc2c(C)nc(Nc3cc(C(=O)OC)n(C)c3)nc21 [Example 30, 4-(6-Chloro-8-ethyl-4-methyl-7-oxo-7,8-dihydro-pyrido[2,3-d]pyrimidin-2-ylamino)-1-methyl-1H-pyrrole-2-carboxylic acid methyl ester]
19 | 5 nM | COCCn1c(=O)c(Br)cc2c(C)nc(Nc3cc(C(=O)O)n(C)c3)nc21 [Example 32, 4-[6-Bromo-8-(2-methoxy-ethyl)-4-methyl-7-oxo-7,8-dihydro-pyrido[2,3-d]pyrimidin-2-ylamino]-1-methyl-1H-pyrrole-2-carboxylic acid]
20 | 17 nM | COc1ccc(Cn2c(=O)c(Br)cc3c(C)nc(Nc4cc(C(=O)O)n(C)c4)nc32)cc1 [Example 33, 4-[6-Bromo-8-(4-methoxy-benzyl)-4-methyl-7-oxo-7,8-dihydro-pyrido[2,3-d]pyrimidin-2-ylamino]-1-methyl-1H-pyrrole-2-carboxylic acid]
21 | 21 nM | Cc1nc(Nc2cc(C(=O)O)n(C)c2)nc2c1ccc(=O)n2C1CCCCC1 [Example 38, 4-[8-Cyclohexyl-4-methyl-7-oxo-7,8-dihydro-pyrido[2,3-d]pyrimidin-2-ylamino]-1-methyl-1H-pyrrole-2-carboxylic acid]

Reference: patent US20080255162A1, “Pyrrolyl Substituted Pyrido[2,3-D]Pyrimidin-7-Ones and Derivatives Thereof as Therapeutic Agents” (WARNER-LAMBERT COMPANY LLC, priority 2004, published 2008)
